The test system of assay [1] is AR4-2J cells. In words: Inhibition of unsynchronised AR4-2J cell proliferation by gastrin/CCK receptor antagonists (MTT assay, direct cell counts). The class given is cell-based. The settings on record: Rattus norvegicus, AR-42J, 96 h, read-out: half maximal inhibitory concentration, AR4-2J proliferation. For orientation: Formazan colour is commonly taken as a measure of viable cells.

Assay [2] has as its system AR4-2J cells. In words: Reversal by exogenous gastrin of antagonist-induced inhibition of AR4-2J proliferation. The note with it: 5 x 10^-7 M gastrin added 2 h before the antagonist at its growth IC50. The class given is cell-based, rat.
The target of a further assay is T1, gastrin/CCK-B receptors (Rattus norvegicus, UniProt P30553).
T1 construct: AR4-2J cells were harvested, washed three times with Eagle's modified essential medium; host or cells: AR4-2J rat pancreatic acinar tumour cells (intact cells)
T1 sequence (P30553 1-452): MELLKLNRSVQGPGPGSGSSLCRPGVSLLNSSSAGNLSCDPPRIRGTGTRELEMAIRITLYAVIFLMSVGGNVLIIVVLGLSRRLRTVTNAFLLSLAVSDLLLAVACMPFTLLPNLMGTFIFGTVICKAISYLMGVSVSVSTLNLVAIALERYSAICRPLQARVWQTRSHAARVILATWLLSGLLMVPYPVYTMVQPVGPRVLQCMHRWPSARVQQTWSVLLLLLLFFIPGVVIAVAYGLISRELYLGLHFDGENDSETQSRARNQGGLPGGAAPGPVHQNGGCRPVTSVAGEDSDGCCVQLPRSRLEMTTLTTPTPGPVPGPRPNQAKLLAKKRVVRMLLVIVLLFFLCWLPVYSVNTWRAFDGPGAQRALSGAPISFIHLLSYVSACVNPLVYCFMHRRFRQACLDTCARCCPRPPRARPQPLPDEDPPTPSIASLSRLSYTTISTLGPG
In words: Displacement of 125I-hG17-1 binding to AR4-2J cells. The settings on record: read-out: IC50 for displacing 125I-hG17-1 binding. A general note: Displacement assays read how much labelled ligand stays bound in the presence of the test substance.

In a further assay the test system is HT-29 cells. Briefly: HT-29 cell proliferation (MTT assay). The class given is cell-based, human.
Assay [3] has as its system AR4-2J cells. Briefly: Effect of exogenous gastrin on AR4-2J proliferation in serum-free medium (MTT assay). The class given is cell-based, rat. The note with it: up to 5 x 10^-6 M.

pIC50: −log10 of the molar value. Entries after “also recorded” stand apart in the source; their conditions may differ. Read-outs that look alike come from different tables or passages of the source.

This is an account of results in paper PMC1977912 (British Journal of Cancer, 1992).

On to `CN1C(=O)[C@@H](NC(=O)c2cc3ccccc3[nH]2)N=C(c2ccccc2)c2ccccc21` [devazepide, 3S (- )-N-(2,3-dihydro-l-methyl-2-oxo-5-phenyl-1 H-1,4-benzodiazepine-3-yl) -1H-indole-2-carboxamide], for which the pIC50 in the assay with AR4-2J cells [1] is 4.77. Further, the “effect of prior addition of gastrin on the inhibition of cell growth” value (from here on “effect … on the inhibition of cell growth”) with AR4-2J cells [2] is “not reversed; also recorded: not significantly effected”.
Turning to `O=C(N[C@@H](Cc1c[nH]c2ccccc12)C(=O)O)c1ccc(Cl)cc1` [benzotript, N-p-chlorobenzoyl-L- tryptophan], the pIC50 on gastrin/CCK-B receptors was 3.59. The “effect … on the inhibition of cell growth” value in the assay with AR4-2J cells [2] is recorded as “partially reversed”.
For `Cc1cccc(NC(=O)N[C@@H]2N=C(c3ccccc3)c3ccccc3N(C)C2=O)c1` [L-365,260, 3R(+)-N-(2,3-dihydro-1-methyl-2-oxo-5-phenyl-1H-1 ,4-benzodiazepin-3-yl) -N'-(3-methylphenyl)urea], the “effect … on the inhibition of cell growth” value in the assay on AR4-2J cells [2] is on record as “not reversed; also recorded: not significantly effected”.
The same measure, in the same setting: under `CCCCCN(CCCCC)C(=O)C(CCC(=O)O)NC(=O)c1ccc(Cl)c(Cl)c1` (racemic) [lorglumide, D, L-4-(3,4-dichlorobenzoylamino)-5-(di-n-pentylamino)-5-oxo-pentanoic acid] stands “partially reversed”.
As for gastrin, in the assay with HT-29 cells, the “effect on HT-29 proliferation” value is on record as “neither exogenous gastrin nor an anti-gastrin Ig preparation effected proliferation”. In addition, the “effect on proliferation of asynchronous AR4-2J cells” value in the assay on AR4-2J cells [3] is “no significant effect”.
Take `CCCCCN(CCCOC)C(=O)C(CCC(=O)O)NC(=O)c1ccc(Cl)c(Cl)c1` (racemic) [loxiglumide, D,L-4-(3,4-di-chlorobenzoylamino) -5-(N-3-methoxypropylpentylamino)-5-oxo-pentanoic acid]: the “effect … on the inhibition of cell growth” value in the assay with AR4-2J cells [2] is “partially reversed”.
`CCCN(CCC)C(=O)C(CCC(=O)O)NC(=O)c1ccccc1` (racemic) [proglumide, D,L-4-benzamido-N,N-di-n-propylgluta-ramic acid]: the pIC50 in the assay on AR4-2J cells [1] (4 day incubation, text statement of range) is 2.52; on gastrin/CCK-B receptors, 2.89. In addition, in the assay on AR4-2J cells [2], the “effect … on the inhibition of cell growth” value is given as “partially reversed”.
